Results reported in patent US20130344026A1, “Dimeric Smac Mimetics” (priority 2009, published 2013).
*1 amine or outer side, *2 acyl side, *3 side chain or, on linkers, in order; H or OH if unused. Where a SMILES comes first, the peptide text is derived from it. Bridges are numbered along the chain shown (N, C = ends). Roman numbers before positions name the chains, in order. [ ]: non-standard residue; d: D form. Piperazine(1,4-diyl) = C1CN([*:2])CCN1[*:1]; Chg = N[C@H](C(=O)O)C1CCCCC1; Tle = CC(C)(C)[C@H](N)C(=O)O; NMeA = CN[C@@H](C)C(=O)O

System: HCC461
Assay: cell viability assay in HCC461, compound alone
Type: cell-based
Settings: HCC461, HCC461; Tables 6-9; read-out: IC50 (μM) in cell viability assay in HCC461

Compound	IC50
CN[C@@H](C)C(=O)NC(C(=O)N1C[C@@H](NC(=O)c2cccc(C(=O)N[C@H]3C[C@@H](C(=O)N[C@H](C)c4ccccc4)N(C(=O)[C@H](CCC(=O)OC)NC(=O)[C@@H](N)CO)C3)c2)CC1C(=O)N[C@@H]1CCCc2ccccc21)C(C)(C)C (some centres unmarked) [Compound 153]	27.6 µM
CN[C@@H](C)C(=O)N[C@@H](C)C(=O)N[C@H]1C[C@@H](C(=O)N[C@@H]2CCCc3ccccc32)N(C(=O)[C@@H](NC(=O)[C@H](C)NC)C(C)(C)C)C1 [Compound 146]	> 30 µM
CC[C@H](NC(=O)[C@H](C)NC)C(C)N[C@@H](CNC(=O)c1cccc(C(=O)N[C@H]2C[C@@H](C(=O)N[C@@H]3CCCc4ccccc43)N(C(=O)[C@@H](NC(=O)[C@H](C)NC)C(C)(C)C)C2)c1)C(=O)N[C@H](C)C(C)C (some centres unmarked) [Compound 137]	6.97 µM
CN[C@@H](C)C(=O)N[C@H](C(=O)N1C[C@@H](NC(=O)CC[C@@H](NC(=O)[C@H](NC(=O)[C@@H](C)NC)C(C)C)C(=O)N[C@@H](C)C(C)C)C[C@H]1C(=O)N[C@@H]1CCCc2ccccc21)C(C)(C)C [Compound 158]	> 30 µM
CCC[C@H](NC(=O)[C@H](C)NC)C(=O)N1C[C@@H](NC(=O)c2cccc(C(=O)N[C@H]3C[C@@H](C(=O)N[C@@H]4CCCc5ccccc54)N(C(=O)[C@@H](NC(=O)[C@H](C)NC)C(C)(C)C)C3)c2)C[C@H]1C(=O)N1CCCC1 [Compound 155]	0.467 µM
CN[C@@H](C)C(=O)N[C@H](C(=O)N1C[C@@H](NC(=O)CC[C@@H](NC(=O)[C@H](NC(=O)[C@@H](C)NC)C(C)(C)C)C(=O)N[C@H]2CCCc3ccccc32)C[C@H]1C(=O)N[C@H](C)C(C)C)C(C)(C)C [Compound 159]	0.221 µM
CN[C@@H](C)C(=O)N[C@@H](CC#CC#CC[C@H](NC(=O)[C@H](C)NC)C(=O)N1CSC[C@H]1C(=O)N[C@@H]1CCCc2ccccc21)C(=O)N1CSC[C@H]1C(=O)N[C@@H]1CCCc2ccccc21 [Compound 88]	0.188 µM

Same assay, conditions: HCC461, HCC461; Tables 15-18; read-out: IC50 (uM) in cell viability assay in HCC461

Compound	IC50
CN[C@@H](C)C(=O)NC(C(=O)N1CCC[C@H]1C(=O)NC1CCCc2ccccc21)c1ccc(C#Cc2ccc(C(NC(=O)[C@H](C)NC)C(=O)N3CCC[C@H]3C(=O)NC3CCCc4ccccc43)cc2)cc1 (some centres unmarked) [Compound P2-1]	0.018 µM
CN[C@@H](C)C(=O)N[C@@H](CCCCNC(=O)c1cc(O)cc(C(=O)NCCCC[C@H](NC(=O)[C@H](C)NC)C(=O)N2CCC[C@H]2C(=O)N[C@@H]2CCCc3ccccc32)c1)C(=O)N1CCC[C@H]1C(=O)N[C@@H]1CCCc2ccccc21 [Compound P2-25]	0.086 µM
CN[C@@H](C)C(=O)N[C@H](C(=O)N1CCC[C@H]1C(=O)N[C@H](CNC(=O)CCCC(=O)NC[C@@H](NC(=O)[C@@H]1CCCN1C(=O)[C@@H](NC(=O)[C@H](C)NC)C(C)(C)C)c1ccccc1)c1ccccc1)C(C)(C)C [Compound P4-14]	0.093 µM
CN[C@@H](C)C(=O)N[C@H](C(=O)N1CCC[C@H]1C(=O)N[C@H](CNC(=O)[C@H]1CC[C@@](C)(C(=O)NC[C@@H](NC(=O)[C@@H]2CCCN2C(=O)[C@@H](NC(=O)[C@H](C)NC)C(C)(C)C)c2ccccc2)C1(C)C)c1ccccc1)C(C)(C)C [Compound P4-15]	0.085 µM
CN[C@@H](C)C(=O)N[C@H](C(=O)N1CCC[C@H]1C(=O)N[C@H](C(=O)N1CCN(C(=O)[C@@H](NC(=O)[C@@H]2CCCN2C(=O)[C@@H](NC(=O)[C@H](C)NC)C(C)(C)C)C2CCCCC2)CC1)C1CCCCC1)C(C)(C)C [Compound P4-10] (I: H-[NMeA][Tle]P[Chg] / II: H-[NMeA][Tle]P[Chg]; linker I:C-II:C via Piperazine(1,4-diyl))	0.26 µM
CN[C@@H](C)C(=O)N[C@@H](CCNC(=O)c1cc(C(=O)NCC[C@H](NC(=O)[C@H](C)NC)C(=O)N2CCC[C@H]2C(=O)N[C@@H]2CCCc3ccccc32)[nH]n1)C(=O)N1CCC[C@H]1C(=O)N[C@@H]1CCCc2ccccc21 [Compound P2-28]	0.163 µM
CN[C@@H](C)C(=O)N[C@H](C(=O)N1CCC[C@H]1C(=O)N[C@@H]1CCCc2ccccc21)c1ccc(OCc2ccccc2COc2ccc([C@H](NC(=O)[C@H](C)NC)C(=O)N3CCC[C@H]3C(=O)N[C@@H]3CCCc4ccccc43)cc2)cc1 [Compound P2-3]	0.072 µM

Same assay, conditions: HCC461, HCC461 cells, compound alone; read-out: IC50 (uM) in cell viability assay in HCC461

Compound	IC50
CN[C@@H](C)C(=O)N[C@H](C(=O)N1C[C@@H](NC(=O)c2cccc(C(=O)N[C@H]3C[C@@H](C(=O)Nc4cccc5c4CCCC5)N(C(=O)[C@@H](NC(=O)[C@H](C)NC)C(C)(C)C)C3)c2)C[C@H]1C(=O)Nc1cccc2c1CCCC2)C(C)(C)C [Compound P3-45]	0.181 µM
CN[C@@H](C)C(=O)N[C@H](C(=O)N1C[C@@H](NC(=O)c2ccc(-c3ccc(C(=O)N[C@H]4C[C@@H](C(=O)N[C@@H]5CCCc6ccccc65)N(C(=O)[C@@H](NC(=O)[C@H](C)NC)C(C)(C)C)C4)cc3)cc2)C[C@H]1C(=O)N[C@@H]1CCCc2ccccc21)C(C)(C)C [Compound P3-37]	0.008 µM
CN[C@@H](C)C(=O)N[C@H](C(=O)N1C[C@@H](NC(=O)c2cc(C(=O)N[C@H]3C[C@@H](C(=O)N[C@H](C)c4ccccc4)N(C(=O)[C@@H](NC(=O)[C@H](C)NC)C4CCCCC4)C3)[nH]n2)C[C@H]1C(=O)N[C@H](C)c1ccccc1)C1CCCCC1 [Compound P3-79]	0.057 µM
CN[C@@H](C)C(=O)N[C@H](C(=O)N1C[C@@H](NC(=O)c2cc(N)cc(C(=O)N[C@H]3C[C@@H](C(=O)N[C@@H]4CCCc5ccccc54)N(C(=O)[C@@H](NC(=O)[C@H](C)NC)C(C)C)C3)c2)C[C@H]1C(=O)N[C@@H]1CCCc2ccccc21)C(C)C [Compound P3-56]	0.091 µM
CN[C@@H](C)C(=O)N[C@H](C(=O)N1C[C@@H](NC(=O)c2cc(N)cc(C(=O)N[C@H]3C[C@@H](C(=O)N[C@@H]4CCCc5ccccc54)N(C(=O)[C@@H](NC(=O)[C@H](C)NC)C4CCCCC4)C3)c2)C[C@H]1C(=O)N[C@@H]1CCCc2ccccc21)C1CCCCC1 [Compound P3-54]	0.051 µM
C#CC[C@H](NC(=O)[C@H](C)NC)C(=O)N1C[C@@H](NC(=O)c2cccc(C(=O)N[C@H]3C[C@@H](C(=O)N[C@@H]4CCCc5ccccc54)N(C(=O)[C@H](CC#C)NC(=O)[C@H](C)NC)C3)c2)C[C@H]1C(=O)N[C@@H]1CCCc2ccccc21 [Compound P3-12]	0.047 µM
CN[C@@H](C)C(=O)N[C@H](C(=O)N1C[C@@H](NC(=O)c2cc(N)cc(C(=O)N[C@H]3C[C@@H](C(=O)N[C@H](C)c4ccccc4)N(C(=O)[C@@H](NC(=O)[C@H](C)NC)C4CCCCC4)C3)c2)C[C@H]1C(=O)N[C@H](C)c1ccccc1)C1CCCCC1 [Compound P3-78]	0.049 µM
CN[C@@H](C)C(=O)N[C@H](C(=O)N1C[C@@H](NC(=O)c2cccc(C(=O)N[C@H]3C[C@@H](C(=O)N[C@@H]4CCCc5ccccc54)N(C(=O)[C@@H](NC(=O)[C@H](C)NC)C4CCCCC4)C3)c2)C[C@H]1C(=O)N[C@@H]1CCCc2ccccc21)C1CCCCC1 [Compound P3-53]	0.01 µM
CN[C@@H](C)C(=O)N[C@H](C(=O)N1C[C@@H](NC(=O)c2cc(C(=O)N[C@H]3C[C@@H](C(=O)NCc4ccc(F)cc4)N(C(=O)[C@@H](NC(=O)[C@H](C)NC)C(C)(C)C)C3)[nH]n2)C[C@H]1C(=O)NCc1ccc(F)cc1)C(C)(C)C [Compound P3-72]	0.023 µM
CN[C@@H](C)C(=O)N[C@H](C(=O)N1C[C@@H](NC(=O)c2cc(N)cc(C(=O)N[C@H]3C[C@@H](C(=O)N[C@H](C)c4ccccc4)N(C(=O)[C@@H](NC(=O)[C@H](C)NC)C(C)C)C3)c2)C[C@H]1C(=O)N[C@H](C)c1ccccc1)C(C)C [Compound P3-81]	0.058 µM
CN[C@@H](C)C(=O)N[C@H](C(=O)N1C[C@@H](NC(=O)c2cc(C(=O)N[C@H]3C[C@@H](C(=O)NC4CCCc5ccccc54)N(C(=O)[C@@H](NC(=O)[C@H](C)NC)C(C)(C)C)C3)cc([N+](=O)[O-])c2)CC1C(=O)N[C@@H]1CCCc2ccccc21)C(C)(C)C (some centres unmarked) [Compound P3-16]	0.007 µM
CN[C@@H](C)C(=O)N[C@H](C(=O)N1C[C@@H](NC(=O)c2cccc(C(=O)N[C@H]3C[C@@H](C(=O)N[C@H](C)c4ccccc4)N(C(=O)[C@@H](NC(=O)[C@H](C)NC)C(C)(C)C)C3)c2)C[C@H]1C(=O)N[C@H](C)c1ccccc1)C(C)(C)C [Compound P3-50]	0.063 µM
C#CC[C@H](NC(=O)[C@H](C)NC)C(=O)N1C[C@@H](NC(=O)c2cnc(C(=O)N[C@H]3C[C@@H](C(=O)N[C@@H]4CCCc5ccccc54)N(C(=O)[C@H](CC#C)NC(=O)[C@H](C)NC)C3)cn2)C[C@H]1C(=O)N[C@@H]1CCCc2ccccc21 [Compound P3-14]	0.023 µM
CN[C@@H](C)C(=O)N[C@H](C(=O)N1C[C@@H](NC(=O)c2cccc(C(=O)N[C@H]3C[C@@H](C(=O)N(C)Cc4ccccc4)N(C(=O)[C@@H](NC(=O)[C@H](C)NC)C(C)(C)C)C3)c2)C[C@H]1C(=O)N(C)Cc1ccccc1)C(C)(C)C [Compound P3-49]	0.141 µM
CN[C@@H](C)C(=O)N[C@H](C(=O)N1C[C@@H](NC(=O)c2cc(OC)cc(C(=O)N[C@H]3C[C@@H](C(=O)N[C@H](C)c4ccccc4)N(C(=O)[C@@H](NC(=O)[C@H](C)NC)C(C)(C)C)C3)c2)C[C@H]1C(=O)N[C@H](C)c1ccccc1)C(C)(C)C [Compound P3-73]	0.075 µM
CN[C@@H](C)C(=O)N[C@H](C(=O)N1C[C@@H](NC(=O)c2cc(C(=O)N[C@H]3C[C@@H](C(=O)NC(c4ccccc4)c4ccccc4)N(C(=O)[C@@H](NC(=O)[C@H](C)NC)C(C)(C)C)C3)[nH]n2)C[C@H]1C(=O)NC(c1ccccc1)c1ccccc1)C(C)(C)C [Compound P3-64]	0.008 µM
CN[C@@H](C)C(=O)N[C@H](C(=O)N1C[C@@H](NC(=O)c2cc(N)cc(C(=O)N[C@H]3C[C@@H](C(=O)NCc4ccc(F)cc4)N(C(=O)[C@@H](NC(=O)[C@H](C)NC)C(C)(C)C)C3)c2)C[C@H]1C(=O)NCc1ccc(F)cc1)C(C)(C)C [Compound P3-71]	0.035 µM

Same assay, conditions: HCC461; Tables 15-18; read-out: IC50 (uM) in cell viability assay in HCC461

Compound	IC50
CN[C@@H](C)C(=O)N[C@@H](CCCCCC[C@H](NC(=O)[C@H](C)NC)C(=O)N1C[C@@H](NC(=O)c2ccccc2)C[C@H]1C(=O)N[C@@H]1CCCc2ccccc21)C(=O)N1C[C@@H](NC(=O)c2ccccc2)C[C@H]1C(=O)N[C@@H]1CCCc2ccccc21 [Compound P2-13]	0.168 µM
